# Data: PMC6863536, “Natural compounds as angiogenic enzyme thymidine phosphorylase inhibitors: In vitro biochemical inhibition, mechanistic, and in silico modeling studies” (PLoS ONE, 2019)
# “Also recorded” adds a separate entry of the source. Where two headings read alike, the source gives them in different places.
# Columns and labels:
# [1] = biological target: T1, thymidine phosphorylase (TP), recombinant E. coli TP enzyme (Escherichia coli, UniProt P07650); test: Thymidine phosphorylase inhibition assay (spectrophotometric); assay type: biochemical; conditions: 1.5 mM thymidine, 30°C, pH 7.0, 290 nm, test compounds screened at 500 μM
# T1 construct: purchased Sigma Aldrich, USA
# Procedure: In the current study, we have used commercially available recombinant E. coli TP enzyme, as human TP is not easily accessible.
# Thymidine phosphorylase inhibition assay was carried out spectrophotometrically. Briefly, 0.058 U of TP enzyme (E.C. No. 2.4.2.4, E. coli) was incubated with 500 μM of test compounds at 30°C for 10 minutes. After that 1.5 mM of substrate thymidine was added to 96-well plate, and changes in absorbance were monitored for 10 minutes at 290 nm in microtiter plate reader (Spectramax, M5, Molecular Devices, CA, USA). Enzyme and substrate solution were prepared in 50 mM phosphate buffer of pH 7.0, while test compounds were prepared in DMSO (final concentration 4.5%).
# Enzyme activity was measured under steady-state conditions by observing changes in absorbance for 10 min (at 290 nm) on microtiter plate reader (Spectra Max M5, Molecular Devices, CA, USA). Changes in absorbance upon addition of test compounds were analyzed with the SoftMax Pro 4.8 software which was purchased from Molecular Devices, CA, USA. To calculate the percent inhibition, following formula was used: % Inhibition = 100-Absorbance of test compound/Absorbance of control×100
# Inhibitory potential of test compounds is represented in Figs 1–4 as IC50 value (Inhibitory concentration). […] It was calculated by measuring the effects of different concentrations of inhibitors on the degradation of thymidine. EZ-Fit, Enzyme kinetics software (purchased from Perrella Scientific, Inc., USA) was used to deduce the IC50 values.
# [2] = biological target: T2, thymidine phosphorylase (TP) enzyme (Escherichia coli, UniProt P07650); test: Mechanistic (kinetic) studies on TP, Lineweaver-Burk plot and secondary re-plot; assay type: biochemical, E. coli; conditions: for Type of inhibition: Lineweaver-Burk plot, substrate thymidine
# T2 construct: purchased Sigma Aldrich, USA
# Procedure: In mechanistic studies, TP enzyme was incubated with different concentrations of inhibitors at 30°C for 10 min. Reaction was then initiated by adding four different concentrations of substrate, i.e. thymidine (0.1875–1.5 mM). Enzyme activity was measured under steady state conditions by measuring changes in absorbance for another 10 min at 30°C at 290 nm, on microtiter plate reader (Spectramax, M5, Molecular Devices, CA, USA). Every experiment is performed in triplicate.
# Lineweaver-Burk plot was used to determine the type of inhibition, where the reciprocal of rate of the reaction were plotted against the reciprocal of substrate concentration. Dissociation constant (Ki) were determined by secondary re-plot of Lineweaver-Burk plots. Kinetic data was analysed by GraFit 7 data analysis software (purchased from Erithacus Software Limited, UK).
# [3] = test system: mouse fibroblast (3T3) cell line; test: In vitro MTT cytotoxicity assay; assay type: cell-based; conditions: 3T3 cells, 48 hrs incubation
# Procedure: (§1) The reduction of MTT can only occur in metabolically active cell, so the enzyme activity is actually a measure of cell viability.
# (§2) Briefly, the mouse fibroblast cells (3T3) were cultured in DMEM media containing 5% FBS, 100 IU/ mL penicillin, and 100 μg/ mL streptomycin. Cell suspension (5×10^4cells/ mL) was dispensed in flat-bottomed 96-well plates, and incubated at 37°C and with 5% CO2. After the overnight incubation, old media was aspirated and fresh media containing different concentrations of compounds (prepared in DMSO) were added, and plate was further incubated for 48 hrs. After that, MTT dye (0.5 mg/ mL) was added into each well, and the plate was further incubated for 4 hrs. Following this, DMSO (100 μL) was added into each well, and the level of MTT reduction to formazan with in the cells was calculated by taking the absorbance at 540 nm using a micro plate reader (Spectra Max plus, Molecular Devices, CA, USA).
# (§3) Cellular viability was measured for 10 min, at 570 nm on microtiter plate reader. Changes in absorbance upon addition of test compounds were analyzed with the SoftMax Pro 4.8 software which was purchased from Molecular Devices, CA, USA. Percent inhibition was calculated using the formula mentioned earlier.
# (§4) It was calculated by measuring the effects of different concentrations of inhibitors on the growth of cells. EZ-Fit, Enzyme kinetics software was used to deduce the IC50 values.
# [4] = In vitro MTT cytotoxicity assay; assay type: cell-based, mouse; conditions: mouse, 3T3 mouse fibroblast cells, 3T3 cells, 48 hrs incubation, read-out: Cytotoxicity IC50 (μM ± SD)
# Procedure: as §1, §2, §3, §4
# [5] = read-out: TP Inhibition IC50 (μM ± SEM)
# [6] = thymidine 0.1875–1.5 mM, 30°C, secondary re-plot of Lineweaver-Burk plot, read-out: Ki ± SEM (dissociation constant)
# T1 sequence (P07650 whole entry): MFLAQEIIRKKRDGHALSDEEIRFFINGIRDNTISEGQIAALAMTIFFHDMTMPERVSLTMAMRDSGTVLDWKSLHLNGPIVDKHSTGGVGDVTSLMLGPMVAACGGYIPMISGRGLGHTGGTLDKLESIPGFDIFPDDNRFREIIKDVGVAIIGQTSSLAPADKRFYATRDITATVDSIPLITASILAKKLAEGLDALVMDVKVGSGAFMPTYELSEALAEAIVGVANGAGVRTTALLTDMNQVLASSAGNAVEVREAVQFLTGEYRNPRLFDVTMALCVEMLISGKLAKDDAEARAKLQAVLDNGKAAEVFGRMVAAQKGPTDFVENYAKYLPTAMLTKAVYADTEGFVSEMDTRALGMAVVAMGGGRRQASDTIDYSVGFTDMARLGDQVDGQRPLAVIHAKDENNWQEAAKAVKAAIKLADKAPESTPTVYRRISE
# T2 sequence (P07650 whole entry): as above
SMILES,"IC50 [1, 5]",Type of inhibition [2],"Ki [2, 6]",also measured
"O=C(O)c1cc(O)c(O)c(O)c1 [Compound 16, Gallic acid]",,,,TP Inhibition IC50 (μM ± SEM) [1]: inactive
"N=C1CCCN1Cc1[nH]c(=O)[nH]c(=O)c1Cl [Tipiracil, tipiracil, reference compound]",0.014 ± 0.002 µM,,,
COc1cc2ccc(=O)oc2cc1O[C@@H]1O[C@H](CO[C@@H]2OC[C@](O)(CO)[C@H]2O)[C@@H](O)[C@H](O)[C@H]1O [Compound 10],,Uncompetitive,,Ki [2]: 145 ± 0.001 µM; IC50 ([1]; TP Inhibition IC50 (μM ± SEM)): 295.2 ± 2 µM
"O=c1ccc2ccccc2o1 [Compound 6, coumarin]",420 ± 6.15 µM,Uncompetitive,171 ± 0.001 µM,
"C[C@H](Cc1ccc(O)c(O)c1)[C@@H](C)Cc1ccc(O)c(O)c1 [Compound 18, Masoprocol]",44 ± 0.5 µM,competitive inhibitor,25.6 ± 0.008 µM,Cytotoxicity IC50 (μM ± SD) [3]: non-toxic; also recorded: non-cytotoxic
"O=c1[nH]c(=O)c2cc[nH]c2[nH]1 [7-Deazaxanthine, 7-deazaxanthine, reference compound]",,Non-competitive,,
O=c1cc(-c2ccccc2)oc2ccccc12 [Compound 1],195.1 ± 1.1 µM,Uncompetitive,225 ± 0.002 µM,IC50 at 48 h [4]: 29.1 ± 0.61 µM
COc1cc(O)c2c(=O)cc(-c3c(OC)ccc(O)c3O)oc2c1 [Compound 2],113 µM,,,
CC1(C)C=Cc2c(ccc3ccc(=O)oc23)O1 [Compound 8],181.1 ± 0.6 µM,Uncompetitive,162 ± 0.001 µM,
COc1c(O)cc2oc(-c3ccc(O)c(O)c3)c(O)c(=O)c2c1O [Compound 5],76.8 ± 1.1 µM,Mixed,341.1 ± 0.01 µM,
O=c1cc(-c2ccc(O)cc2)oc2cc(O)cc(O)c12 [Compound 3],,,,TP Inhibition IC50 (μM ± SEM) [1]: inactive
"C[C@@H]1C[C@@H]([C@H](O)CC2CC(=O)NC(=O)C2)C(=O)[C@@H](C)C1 [Cyclohexamide, cycloheximide, reference compound]",,,,IC50 ([3]; read-out: Cytotoxicity IC50 (μM ± SD)): 0.2 ± 0.1 µM
COc1c2ccoc2cc2oc(=O)ccc12 [Compound 7],344.2 ± 1.2 µM,,,
"COc1cc(C(=O)O)ccc1O [Compound 17, Vanillic acid]",,,,TP Inhibition IC50 (μM ± SEM) [1]: inactive
O=c1cc(-c2ccccc2)oc2cc(O)cc(O)c12 [Compound 4],,,,TP Inhibition IC50 (μM ± SEM) [1]: inactive
"COc1cc2c(cc1OC)-c1c(OC)c(OC)cc3c1[C@H](C2)N(C)CC3 [Compound 11, Glaucine HBr]",238.5 ± 2.1 µM,Uncompetitive,180 ± 0.01 µM,
"O=C(O)/C=C/c1ccccc1 [Compound 15, Cinnamic acid]",,,,IC50 ([1]; TP Inhibition IC50 (μM ± SEM)): 349.7 ± 1.4 µM
COc1cc2ccc(=O)oc2cc1O [Compound 9],193.4 ± 1 µM,Non-competitive,419 ± 0.001 µM,
